# Test results reported in patent US20130079373A1, “Substituted Methanesulfonamide Derivatives as Vanilloid Receptor Ligands” (priority 2011, published 2013).
# Target: T1, vanilloid receptor 1 (VR1/TRPV1 receptor) (Homo sapiens, UniProt Q8NER1)
# T1 construct: expressed in transfected cells; host or cells: CHO K1
# Test: Functional testing on the vanilloid receptor 1 (FLIPR Ca2+ influx assay, capsaicin stimulation)
# Assay type: cell-based
# Details: @1 μM compound; Cap = capsaicin; human being; read-out: inhibition (as a percentage), (f) (human being) Cap
# Description: Furthermore, preference may be given to compounds according to the invention that cause a 50 percent displacement of capsaicin, which is present at a concentration of 100 nM, in a FLIPR assay with CHO K1 cells which were transfected with the human VR1 gene at a concentration of less than 2,000 nM, preferably less than 1,000 nM, particularly preferably less than 300 nM, most particularly preferably less than 100 nM, even more preferably less than 75 nM, additionally preferably less than 50 nM, most preferably less than 10 nM.
# In the process, the Ca^2+ influx is quantified in the FLIPR assay with the aid of a Ca^2+-sensitive dye (type Fluo-4, Molecular Probes Europe BV, Leiden, the Netherlands) in a fluorescent imaging plate reader (FLIPR, Molecular Devices, Sunnyvale, USA), as described hereinafter.
# I. Functional Testing Carried Out on the Vanilloid Receptor 1 (VR1/TRPV1 Receptor) […]
# The number of cells in the suspension is set to 3×10^5 per mL and 150 μL of this suspension are in each case introduced into a recess in the cell culture plates coated as described hereinbefore. In the incubator the plates are left for two to three days at 37° C., 5% by volume of CO2 and 95% relative humidity. Subsequently, the cells are loaded with 2 μM of Fluo-4 and 0.01% by volume of Pluronic F127 (Molecular Probes Europe BV, Leiden, the Netherlands) in HBSS buffer (Hank's buffered saline solution, Gibco Invitrogen GmbH, Karlsruhe, Germany) for 30 min at 37° C., washed 3 times with HBSS buffer and after further incubation for 15 minutes at room temperature used for Ca^2+ measurement in a FLIPR assay. The Ca^2+ dependent fluorescence is in this case measured before and after the addition of substances (λex=488 nm, λem=540 nm). Quantification is carried out by measuring the highest fluorescence intensity (FC, fluorescence counts) over time.
# The FLIPR protocol consists of 2 substance additions. First the compounds to be tested (10 μM) are pipetted onto the cells and the Ca^2+ influx is compared with the control (capsaicin 10 μM). This provides the result in % activation based on the Ca^2+ signal after the addition of 10 μM of capsaicin (CP). After 5 minutes' incubation, 100 nM of capsaicin are applied and the Ca^2+ influx is also determined.
# Desensitising agonists and antagonists lead to suppression of the Ca^2+ influx. The % inhibition is calculated compared to the maximum achievable inhibition with 10 μM of capsazepine.
# Triple analyses (n=3) are carried out and repeated in at least 3 independent experiments (N=4).
# Starting from the percentage displacement caused by different concentrations of the compounds to be tested of general formula I, IC50 inhibitory concentrations which cause a 50-percent displacement of capsaicin were calculated. Ki values for the test substances were obtained by conversion by means of the Cheng-Prusoff equation (Cheng, Prusoff; Biochem. Pharmacol. 22, 3099-3108, 1973).
# The affinity of the compounds according to the invention for the vanilloid receptor 1 (VR1/TRPV1 receptor) was determined as described hereinbefore (pharmacological method I).
# T1 sequence (Q8NER1 whole entry): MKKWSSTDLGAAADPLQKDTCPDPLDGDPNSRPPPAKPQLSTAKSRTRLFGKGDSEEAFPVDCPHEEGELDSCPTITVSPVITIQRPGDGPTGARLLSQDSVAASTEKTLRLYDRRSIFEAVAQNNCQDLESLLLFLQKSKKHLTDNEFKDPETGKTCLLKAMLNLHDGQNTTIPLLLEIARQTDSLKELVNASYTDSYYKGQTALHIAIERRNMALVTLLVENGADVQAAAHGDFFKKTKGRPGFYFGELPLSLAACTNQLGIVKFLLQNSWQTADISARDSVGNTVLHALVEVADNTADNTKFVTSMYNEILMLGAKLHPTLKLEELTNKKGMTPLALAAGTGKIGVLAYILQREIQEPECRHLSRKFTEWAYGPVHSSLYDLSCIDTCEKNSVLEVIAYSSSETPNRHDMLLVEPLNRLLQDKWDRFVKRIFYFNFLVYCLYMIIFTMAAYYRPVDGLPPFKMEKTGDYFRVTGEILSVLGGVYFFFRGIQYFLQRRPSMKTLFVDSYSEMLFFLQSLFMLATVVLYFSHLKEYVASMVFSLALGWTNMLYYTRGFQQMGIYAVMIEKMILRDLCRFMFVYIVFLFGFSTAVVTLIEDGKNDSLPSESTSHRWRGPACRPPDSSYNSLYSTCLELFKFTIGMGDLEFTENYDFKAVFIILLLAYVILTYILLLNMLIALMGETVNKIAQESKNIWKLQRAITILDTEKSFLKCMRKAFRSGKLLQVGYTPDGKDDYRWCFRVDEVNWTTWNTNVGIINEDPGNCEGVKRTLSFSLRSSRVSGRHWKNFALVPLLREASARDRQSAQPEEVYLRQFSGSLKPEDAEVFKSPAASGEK
row,inhibition at 1 µM [%],SMILES
1,15,"COc1cc(C(C)C(=O)NCc2ccc(C(F)(F)F)nc2OC(C)C)ccc1CNS(C)(=O)=O (stereo not shown) [Example 27, N-((2-isopropoxy-6-(trifluoromethyl)pyridin-3-yl)methyl)-2-(3-methoxy-4-(methylsulfonamidomethyl)phenyl)propanamide]"

# Same assay, conditions: @5 μM compound; Cap = capsaicin; human being; read-out: inhibition (as a percentage), (f) (human being) Cap
row,inhibition at 5 µM [%],SMILES
1,18,"COCCCc1nc(C(F)(F)F)ccc1CNC(=O)C(C)c1ccc(CNS(C)(=O)=O)c(F)c1 (stereo not shown) [Example 2, 2-(3-fluoro-4-(methylsulfonamidomethyl)phenyl)-N-((2-(3-methoxypropyl)-6-(trifluoromethyl)pyridin-3-yl)methyl)propanamide]"
2,13,"COCCOCc1nc(C(F)(F)F)ccc1CNC(=O)C(C)c1ccc(CNS(C)(=O)=O)c(F)c1 (stereo not shown) [Example 3, 2-(3-fluoro-4-(methylsulfonamidomethyl)phenyl)-N-((2-((2-methoxyethoxy)methyl)-6-(trifluoromethyl)pyridin-3-yl)methyl)propanamide]"

# Same assay, conditions: Cap = capsaicin; human being; Ki from IC50 by the Cheng-Prusoff equation; read-out: (f) Ki (human being) [nM] Cap
row,Ki [nM],SMILES
1,37,"CC(C)Oc1nc(C(F)(F)F)ccc1CNC(=O)C(C)c1ccc(CNS(C)(=O)=O)c(F)c1 (stereo not shown) [Example 15, 2-(3-fluoro-4-(methylsulfonamidomethyl)phenyl)-N-((2-isopropoxy-6-(trifluoromethyl)pyridin-3-yl)methyl)propanamide]"
2,13,"CC(C(=O)NCc1ccc(C(F)(F)F)nc1OC1CCCC1)c1ccc(CNS(C)(=O)=O)c(F)c1 (stereo not shown) [Example 20, N-((2-(cyclopentyloxy)-6-(trifluoromethyl)pyridin-3-yl)methyl)-2-(3-fluoro-4-(methylsulfonamidomethyl)phenyl)propanamide]"
3,111,"CC(C(=O)NCc1ccc(C(F)(F)F)nc1OC1CCOCC1)c1ccc(CNS(C)(=O)=O)c(F)c1 (stereo not shown) [Example 25, 2-(3-fluoro-4-(methylsulfonamidomethyl)phenyl)-N-((2-(tetrahydro-2H-pyran-4-yloxy)-6-(trifluoromethyl)pyridin-3-yl)methyl)propanamide]"
4,70,"CCS(=O)(=O)NCc1ccc(C(C)C(=O)NCc2ccc(C(F)(F)F)nc2OC(C)C)cc1F (stereo not shown) [Example 30, 2-(4-(ethylsulfonamidomethyl)-3-fluorophenyl)-N-((2-isopropoxy-6-(trifluoromethyl)pyridin-3-yl)methyl)propanamide]"
5,10,"CC(C)Oc1nc(C(F)(F)F)ccc1CNC(=O)Nc1ccc(CNS(N)(=O)=O)cc1 [Example 32, 1-{[2-isopropoxy-6-(trifluoromethyl)pyridin-3-yl]methyl}-3-{4-[(sulfamoylamino)methyl]phenyl}urea]"
6,1,"NS(=O)(=O)NCc1ccc(NC(=O)NCc2ccc(C(F)(F)F)nc2OC2CCCC2)cc1 [Example 34, 1-{[2-cyclopentyloxy-6-(trifluoromethyl)pyridin-3-yl]methyl}-3-{4-[(sulfamoylamino)methyl]phenyl}urea]"
7,16,"CCOc1nc(C(F)(F)F)ccc1CNC(=O)Nc1ccc(CNS(N)(=O)=O)c(F)c1 [Example 35, 1-{3-fluoro-4-[(sulfamoylamino)methyl]phenyl}-3-{[2-ethoxy-6-(trifluoromethyl)pyridin-3-yl]methyl}urea]"
8,6,"CC(C)Oc1nc(C(F)(F)F)ccc1CNC(=O)Nc1ccc(CNS(N)(=O)=O)c(F)c1 [Example 36, 1-{3-fluoro-4-[(sulfamoylamino)methyl]phenyl}-3-{[2-isopropoxy-6-(trifluoromethyl)pyridin-3-yl]methyl}urea]"
9,5,"NS(=O)(=O)NCc1ccc(NC(=O)NCc2ccc(C(F)(F)F)nc2OC2CCCC2)cc1F [Example 38, 1-{3-fluoro-4-[(sulfamoylamino)methyl]phenyl}-3-{[2-cyclopentyloxy-6-(trifluoromethyl)pyridin-3-yl]methyl}urea]"
10,44,"CC(C(=O)NCc1ccc(C(F)(F)F)nc1SC1CCCCC1)c1ccc(CNS(C)(=O)=O)c(F)c1 (stereo not shown) [Example 43, N-((2-(cyclohexylthio)-6-(trifluoromethyl)pyridin-3-yl)methyl)-2-(3-fluoro-4-(methylsulfonamidomethyl)phenyl)propanamide]"
11,83,"CC(C(=O)NCc1ccc(C(F)(F)F)nc1-c1ccc2cc[nH]c2c1)c1ccc(CNS(C)(=O)=O)c(F)c1 (stereo not shown) [Example 44, N-((2-(1H-indol-6-yl)-6-(trifluoromethyl)pyridin-3-yl)methyl)-2-(3-fluoro-4-(methylsulfonamidomethyl)phenyl)propanamide]"
12,59,"CC(C(=O)NCc1ccc(C(F)(F)F)nc1-c1ccc2c(c1)OCO2)c1ccc(CNS(C)(=O)=O)c(F)c1 (stereo not shown) [Example 45, N-((2-(benzo[d][1,3]dioxol-5-yl)-6-(trifluoromethyl)pyridin-3-yl)methyl)-2-(3-fluoro-4-(methylsulfonamidomethyl)phenyl)propanamide]"
13,46,"CC(C(=O)NCc1ccc(C(F)(F)F)nc1-c1ccoc1)c1ccc(CNS(C)(=O)=O)c(F)c1 (stereo not shown) [Example 46, 2-(3-fluoro-4-(methylsulfonamidomethyl)phenyl)-N-((2-(furan-3-yl)-6-(trifluoromethyl)pyridin-3-yl)methyl)propanamide]"

# Continued, molecule first:
row,SMILES,Ki [nM]
1,"CCCCCc1nc(C(F)(F)F)ccc1CNC(=O)C(C)c1ccc(CNS(C)(=O)=O)c(F)c1 (stereo not shown) [Example 1, 2-(3-fluoro-4-(methylsulfonamidomethyl)phenyl)-N-((2-pentyl-6-(trifluoromethyl)pyridin-3-yl)methyl)propanamide]",14
2,"CC(C(=O)NCc1ccc(C(F)(F)F)nc1/C=C/C(C)(C)C)c1ccc(CNS(C)(=O)=O)c(F)c1 (stereo not shown) [Example 4, (E)-N-((2-(3,3-dimethylbut-1-enyl)-6-(trifluoromethyl)pyridin-3-yl)methyl)-2-(3-fluoro-4-(methylsulfonamidomethyl)phenyl)propanamide]",12
3,"CC(C(=O)NCc1ccc(C(F)(F)F)nc1C1CCCC1)c1ccc(CNS(C)(=O)=O)c(F)c1 (stereo not shown) [Example 5, N-((2-cyclopentyl-6-(trifluoromethyl)pyridin-3-yl)methyl)-2-(3-fluoro-4-(methylsulfonamidomethyl)phenyl)propanamide]",13
4,"CC(C(=O)NCc1ccc(C(F)(F)F)nc1C1CCCCC1)c1ccc(CNS(C)(=O)=O)c(F)c1 (stereo not shown) [Example 6, N-((2-cyclohexyl-6-(trifluoromethyl)pyridin-3-yl)methyl)-2-(3-fluoro-4-(methylsulfonamidomethyl)phenyl)propanamide]",15
5,"CCCCOc1nc(C(F)(F)F)ccc1CNC(=O)C(C)c1ccc(CNS(C)(=O)=O)c(F)c1 (stereo not shown) [Example 16, N-((2-butoxy-6-(trifluoromethyl)pyridin-3-yl)methyl)-2-(3-fluoro-4-(methylsulfonamidomethyl)phenyl)propanamide]",8
6,"CCCCOc1nc(C(F)(F)F)ccc1CNC(=O)C(C)c1ccc(CNS(C)(=O)=O)c(OC)c1 (stereo not shown) [Example 29, N-((2-butoxy-6-(trifluoromethyl)pyridin-3-yl)methyl)-2-(3-methoxy-4-(methylsulfonamidomethyl)phenyl)propanamide]",61
7,"CCCCOc1nc(C(F)(F)F)ccc1CNC(=O)C(C)c1ccc(CNS(=O)(=O)CC)c(F)c1 (stereo not shown) [Example 31, N-((2-butoxy-6-(trifluoromethyl)pyridin-3-yl)methyl)-2-(4-(ethylsulfonamidomethyl)-3-fluorophenyl)propanamide]",15
8,"CCCCOc1nc(C(F)(F)F)ccc1CNC(=O)Nc1ccc(CNS(N)(=O)=O)cc1 [Example 33, 1-{[2-butoxy-6-(trifluoromethyl)pyridin-3-yl]methyl}-3-{4-[(sulfamoylamino)methyl]phenyl}urea]",8
9,"CCCCOc1nc(C(F)(F)F)ccc1CNC(=O)Nc1ccc(CNS(N)(=O)=O)c(F)c1 [Example 37, 1-{3-fluoro-4-[(sulfamoylamino)methyl]phenyl}-3-{[2-butoxy-6-(trifluoromethyl)pyridin-3-yl]methyl}urea]",7
